Laboratory results from ChEMBL document CHEMBL3400106, “TR-FRET binding assay targeting unactivated form of Bruton's tyrosine kinase” (Bioorg Med Chem Lett, 2015).
pIC50, pKd: −log10 of the molar value. The source made the active and inactive calls. No cut-off for these calls is given here.

Key:
[1] = biological target: T1, Tyrosine-protein kinase BTK (Homo sapiens, UniProt Q06187); test: Binding affinity to biotinylated and unactivated BTK (unknown origin) at 0.001 to 0.1 uM incubated for 1 hr by TR-FRET assay
T1 sequence (Q06187 whole entry): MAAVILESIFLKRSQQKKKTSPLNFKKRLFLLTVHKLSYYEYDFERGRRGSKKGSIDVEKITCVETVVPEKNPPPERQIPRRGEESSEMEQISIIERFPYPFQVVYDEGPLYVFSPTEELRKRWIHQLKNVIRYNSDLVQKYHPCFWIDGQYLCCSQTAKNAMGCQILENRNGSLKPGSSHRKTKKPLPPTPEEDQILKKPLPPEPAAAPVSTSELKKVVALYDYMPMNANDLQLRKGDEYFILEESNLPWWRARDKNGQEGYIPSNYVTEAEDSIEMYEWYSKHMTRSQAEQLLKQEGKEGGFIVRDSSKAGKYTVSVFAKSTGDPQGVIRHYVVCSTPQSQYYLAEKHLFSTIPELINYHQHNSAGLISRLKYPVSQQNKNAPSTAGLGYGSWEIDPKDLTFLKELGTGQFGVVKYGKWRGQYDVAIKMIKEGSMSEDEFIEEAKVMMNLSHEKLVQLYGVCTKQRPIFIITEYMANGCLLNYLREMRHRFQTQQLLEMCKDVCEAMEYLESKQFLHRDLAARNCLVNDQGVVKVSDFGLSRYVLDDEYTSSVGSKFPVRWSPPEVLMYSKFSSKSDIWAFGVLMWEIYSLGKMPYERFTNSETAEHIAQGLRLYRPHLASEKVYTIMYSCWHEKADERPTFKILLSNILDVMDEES

[2] = Chemical stability in solution; type: physicochemical
[3] = biological target: T1, Tyrosine-protein kinase BTK; test: Binding affinity to biotinylated and unactivated BTK (unknown origin) incubated for 1 hr by TR-FRET assay
[4] = biological target: T1, Tyrosine-protein kinase BTK; test: Inhibition of biotinylated and activated BTK (unknown origin) using FITC-labeled Srctide peptide substrate and ATP
[5] = biological target: T1, Tyrosine-protein kinase BTK; test: Inhibition of biotinylated and unactivated BTK (unknown origin) using FITC-labeled Srctide peptide substrate and ATP
[6] = biological target: T1, Tyrosine-protein kinase BTK; test: Binding affinity to biotinylated and activated BTK (unknown origin) at 0.001 to 0.1 uM incubated for 1 hr by TR-FRET assay
[7] = biological target: T1, Tyrosine-protein kinase BTK; test: Inhibition of biotinylated and activated BTK (unknown origin) up to 100 uM using FITC-labeled Srctide peptide substrate and ATP
[8] = biological target: T1, Tyrosine-protein kinase BTK; test: Inhibition of unactivated BTK (unknown origin) using 30 uM probe 5-(4-(4-(6-(3-(4-tert-butylbenzamido)-2-methylphenyl)-4-methyl-3-oxo-3,4-dihydropyrazin-2-ylamino)benzoyl)piperazine-1-carbothioamido)-2-(6-hydroxy-3-oxo-3H-xanthen-9-yl)benzoic acid

SMILES	Activity [1]	Stability [2]	pKd [3]	pIC50 [4]	pIC50 [5]	Activity [6]	inhibition [7]	inhibition [8] [%]
CC(=O)Nc1cccc(NC(=O)c2ccc(CN3CCN(C)CC3)cc2)c1	–	–	–	–	5.33	–	inactive	> 10
Cc1c(NC(=O)c2ccc(C(C)(C)C)cc2)cccc1-c1cn(C)c(=O)c(Nc2ccc(C(=O)N3CCN(C(=S)Nc4ccc(-c5c6ccc(=O)cc-6oc6cc(O)ccc56)c(C(=O)O)c4)CC3)cc2)n1	Active	–	8.60	7.16	9.21	inactive	–	–
Cc1c(NC(=O)c2ccc(C(C)(C)C)cc2)cccc1-c1cn(C)c(=O)c(Nc2ccc(C(=O)N3CCOC(CNC(=S)Nc4ccc(-c5c6ccc(=O)cc-6oc6cc(O)ccc56)c(C(=O)O)c4)C3)cc2)n1 (stereo unspecified)	Active	–	8.42	6.46	8.32	inactive	–	–

Next, values leading:

Activity [1]	Stability [2]	pKd [3]	pIC50 [4]	pIC50 [5]	Activity [6]	inhibition [7]	inhibition [8] [%]	SMILES
Active	Unstable	8.06	6.52	8.11	inactive	–	–	Cc1c(NC(=O)c2ccc(C(C)(C)C)cc2)cccc1-c1cn(C)c(=O)c(Nc2ccc(C(=O)NCCOCCOCCNC(=S)Nc3ccc(-c4c5ccc(=O)cc-5oc5cc(O)ccc45)c(C(=O)O)c3)cc2)n1
Active	Unstable	8.26	6.72	8.37	inactive	–	–	Cc1c(NC(=O)c2ccc(C(C)(C)C)cc2)cccc1-c1cn(C)c(=O)c(Nc2ccc(C(=O)NCCCCNC(=S)Nc3ccc(-c4c5ccc(=O)cc-5oc5cc(O)ccc45)c(C(=O)O)c3)cc2)n1
Active	–	8.21	6.68	8.49	inactive	–	–	Cc1c(NC(=O)c2ccc(C(C)(C)C)cc2)cccc1-c1cn(C)c(=O)c(Nc2ccc(C(=O)NCCCNC(=S)Nc3ccc(-c4c5ccc(=O)cc-5oc5cc(O)ccc45)c(C(=O)O)c3)cc2)n1
Active	Unstable	8.21	6.54	8.25	inactive	–	–	Cc1c(NC(=O)c2ccc(C(C)(C)C)cc2)cccc1-c1cn(C)c(=O)c(Nc2ccc(C(=O)NCCNC(=S)Nc3ccc(-c4c5ccc(=O)cc-5oc5cc(O)ccc45)c(C(=O)O)c3)cc2)n1
